Data from PMC10384408, “Anticancer Tungstenocenes with a Diverse Set of (O,O–), (O,S–) and (O,N–) Chelates—A Detailed Biological Study Using an Improved Evaluation via 3D Spheroid Models” (Pharmaceutics, 2023).
Like-named read-outs stand apart in the source and are kept apart here.

Assays:
[1] = system: A549 (non-small cell lung carcinoma) cells; conditions: MTT assay, 96 h; cited from earlier work
[2] = system: IMR-90 human lung fibroblasts; test: MTT cytotoxicity assay, IMR-90 fibroblasts; type: cell-based; conditions: exposure time 96 h, mean ± SD
Description: (§1) CH1/PA-1 (ovarian teratocarcinoma), SW480 (colon carcinoma) and A549 (non-small cell lung cancer) cells were maintained as described in the reference. IMR-90 human fetal lung fibroblasts (from the European Collection of Authenticated Cell Cultures, Porton Down, Salisbury, UK) were cultured in Stable Cell^TM DMEM/F12 supplemented with 0.01 mg/mL human recombinant insulin (both purchased from Sigma-Aldrich) and 10% fetal bovine serum (FBS, BioWest, Nuaillé, France). Human colon carcinoma cell lines HCT116 and HT29 (both kindly provided by the Institute of Cancer Research, Department of Medicine I, Medical University of Vienna, Austria) were cultured in McCoy’s 5a medium supplemented with 4 mM L-glutamine (both purchased from Sigma-Aldrich) and 10% FBS. MCF-7 human breast adenocarcinoma cells (kindly provided by M. Ogris, Department of Pharmaceutical Sciences, University of Vienna, Austria) were maintained in DMEM (high glucose) supplemented with 4 mM L-glutamine, 0.1 mg/mL human insulin (all purchased from Sigma-Aldrich) and 10% FBS. All cell lines were grown as monolayers in 75 cm^2 culture flasks (CytoOne, Starlab, Hamburg, Germany) at 37 °C in a humidified atmosphere containing 5% CO2.
(§2) Exponentially growing cells were plated into 96-well microculture plates (CytoOne, tissue culture treated, Starlab, Hamburg, Germany) in densities of 1 × 10^3 CH1/PA-1, 2 × 10^3 SW480, 3 × 10^3 A549 and 7 × 10^3 IMR-90 cells per well (each in 100 µL). After a 24 h preincubation, drugs were added in serial dilution to give a final volume of 200 µL/well and exposed for 96 h. At the end of the exposure, the drug solutions were replaced by 100 µL RPMI 1640/MTT mixture (7:1 ratio). MTT (3-(4,5-dimethylthiazol-2-yl)-2,5-diphenyl-2H-tetrazolium bromide), (Acros Organics, Geel, Belgium) solution was prepared in phosphate-buffered saline (5 mg/mL) and mixed with RPMI1640 medium supplemented with 4 mM L-glutamine (both from Sigma-Aldrich) and 10% FBS. After 4 h incubation, the formazan crystals were solubilized in 150 µL of DMSO per well. Absorbance was measured at 550 nm (and at 690 nm as a reference) with a microplate reader (ELx808, BioTek, Winoosky, VT, USA) and Gen5^TM 3.08 software (BioTek). The 50% inhibitory concentrations (IC50) relative to untreated controls were interpolated from concentration-effect curves. At least three biologically and technically independent experiments were performed.

[3] = system: SW480 (colon carcinoma) cells; conditions: MTT assay, 96 h; cited from earlier work
[4] = system: CH1/PA-1 (ovarian teratocarcinoma) cells; conditions: MTT assay, 96 h; cited from earlier work
[5] = Solubility in PBS (1% DMSO); type: physicochemical
Description: Stock solutions in DMSO of compounds 1–10 were utilized to determine the solubility in PBS by adding 1 vol% of the stock solution to a suitable amount of PBS. […] UV/Vis data were recorded on a Perkin Elmer Lambda 650 UV/Vis Spectrophotometer with a Peltier element for temperature control.

[6] = system: CH1/PA-1 (ovarian teratocarcinoma) cells; test: MTT cytotoxicity assay, CH1/PA-1 monolayer; type: cell-based, human; conditions: exposure time 96 h, mean ± SD
Description: as §1, §2

[7] = Cyclic voltammetry in MeCN (W(IV) to W(V)); type: physicochemical; conditions: vs. NHE, scan rate 200 mV/s
Description: NMR spectra were recorded with a Bruker FT-NMR Avance III^TM 500 MHz spectrometer at 500.10 (^1H), and 125.75 MHz (^13C) using DMSO–d6. 2D-NMR measurements were recorded utilizing standard pulse programs COSY, HSQC and HMBC. The Microanalytical Laboratory of the University of Vienna performed the elemental analyses with a Eurovector EA 3000(2009) equipped with a high temperature pyrolysis furnace (HT, Hekatech, Germany, 2009). Elemental analyses’ samples were weighed (weights from 1–3 mg were used) on a Sartorius SEC 2 ultra-micro balance with ±0.1 µg resolution. Two NIST-certified reference materials were used for calibration: sulfanilamide (C6H8N2O2S) and BBOT (2,5-bis-(5-tert-butyl-2-benzoxazol-2-yl)-thiophenone, C26H26N2O2S). The limit of quantification (LOQ) was 0.05 w% for C, H, N and 0.02 w% for S. For samples without N and/or S, the content of these elements was determined and verified to be below the LOQ. X-ray diffraction analyses were carried out on a Bruker X8 APEX II CCD diffractometer at 100 K. ESI-MS were recorded on a Bruker AmaZon SL ion trap mass spectrometer (Bruker Daltonics GmbH). Data were obtained and processed with Compass 1.3 and Data Analysis 4.0 (Bruker Daltonics GmbH). Infrared spectra were attained on a Bruker Vertex 70 FT-IR-spectrometer with an ATR-unit (attenuated total reflection unit) in the range of 4000–600 cm^−1. Intensities of the reported bands are described with w for weak, m for medium and s for strong; broad signals are additionally specified with the letter b in front of these abbreviations. Cyclic voltammograms (CVs) were measured in a three-electrode cell using 2 mm diameter glassy carbon disk working electrode, a platinum auxiliary electrode and an Ag|Ag^+ reference electrode containing 0.1 M AgNO3. Measurements were carried out at room temperature using an EG&G PARC potentiostat/galvanostat 273A. The solutions were deoxygenized by purging a stream of argon for 3 min through the solution and the experiment was performed under an argon atmosphere. The potentials were measured in a freshly prepared solution of (n Bu4N)[BF4] (0.1 M) in acetonitrile using ferrocene (Fe(η^5-C5H5)2) (E1/2 = +0.72 V vs. NHE) as an internal standard and are quoted relative to the normal hydrogen electrode (NHE).
The electrochemical behavior of all complexes and the precursor Cp2WCl2 was studied by cyclic voltammetry with a scan rate of 200 mV/s, from −0.5 to +1.2 or +1.5 V. Measurements were performed in triplicate. Due to low water solubility of compounds 1–10 acetonitrile (MeCN) was utilized in order to reach the 2 mM concentration.

[8] = system: SW480 (colon carcinoma) cells; test: MTT cytotoxicity assay, SW480 monolayer; type: cell-based, human; conditions: for activity in SW480: 96 h; for IC50: exposure time 96 h, mean ± SD
Description: as §1, §2

[9] = system: A549 (non-small cell lung carcinoma) cells; test: MTT cytotoxicity assay, A549 monolayer; type: cell-based, human; conditions: for activity in A549: 96 h; for IC50: exposure time 96 h, mean ± SD
Description: as §1, §2

[10] = system: HCT116 cells; test: Annexin V-FITC/PI apoptosis assay, HCT116; type: cell-based, human; conditions: HCT116, 24 h, 200 µM
[11] = system: HCT116 cells; test: Resazurin assay, HCT116 2D monolayer; type: cell-based, human; conditions: 96 h
Description: as §1
(§3) For the resazurin assay in monolayer cultures, cells were seeded into 96-well microculture plates (CytoOne, tissue culture treated, Starlab, Hamburg, Germany) in densities of 2 × 10^3 HCT116, 2 × 10^3 HT29 and 4 × 10^3 MCF-7 cells per well (each in 100 µL). For tests in 3D cultures, spheroids were grown as described above. After 24 h (for monolayers) or 4 days (for spheroids) the test compounds in the appropriate medium were added in serial dilution to the plates to obtain a total volume of 200 µL/well. Wells without cells, containing medium and resazurin (Alfa Aesar, Thermo Fisher, Kandel, Germany) solution were used as blanks. After 96 h exposure 20 µL of the resazurin solution (440 µM) were added to each well, followed by a 4 h (2D) or 12 h (3D) incubation period. Resorufin fluorescence was quantified at 530 nm (and a reference wavelength of 620 nm) by using a microplate reader (Synergy HT, BioTek) with Gen5^TM 3.10 software (BioTek).

[12] = system: HCT116 multicellular tumor spheroids; test: Resazurin assay, HCT116 3D spheroids; type: cell-based, human; conditions: 96 h, spheroids
Description: as §1
(§4) For growing multicellular tumor spheroids, 400 HCT116, 400 HT29 or 800 MCF-7 cells per well were plated into round-bottom ultra-low attachment 96-well plates (Corning, Glendale, AZ, USA) in the media described above and incubated at 37 °C for 96 h. Spheroids were treated with 10 µM of the two most cytotoxic compounds 3 and 4 for another 96 h. The diameters of the spheroids were measured with Cell^F software under a CKX41 Olympus microscope before treatment and in constant daily intervals over the 96 h treatment period. For statistical analysis the t-test with Welsh’s correction was implemented in GraphPad Prism software (Version 6.01).
as §3

[13] = system: HT29 cells; test: Resazurin assay, HT29 2D monolayer; type: cell-based, human; conditions: 96 h
Description: as §1, §3

[14] = system: MCF-7 cells; test: Resazurin assay, MCF-7 2D monolayer; type: cell-based, human; conditions: 96 h
Description: as §1, §3

[15] = system: HT29 multicellular tumor spheroids; test: Resazurin assay, HT29 3D spheroids; type: cell-based, human; conditions: 96 h, spheroids
Description: as §1, §4, §3

[16] = system: MCF-7 cells; test: Annexin V-FITC/PI apoptosis assay, MCF-7; conditions: MCF-7, 24 h, 200 µM
[17] = system: MCF-7 multicellular tumor spheroids; test: Resazurin assay, MCF-7 3D spheroids; type: cell-based, human; conditions: 96 h, spheroids
Description: as §1, §4, §3

[18] = system: HCT116, HT29 and MCF-7 cell lines; test: ROS detection (DCFH-DA assay); type: cell-based, human; conditions: 2, 20, 100 and 200 µM, 2 h
Description: Reactive oxygen species (ROS) generation was measured by means of the DCFH-DA assay. […] On the following day, cells were washed with 200 µL Hanks’ balanced salt solution (HBSS, Sigma-Aldrich, containing 1% FBS) and stained with 100 µL of 25 µM DCFH-DA (2′,7′-dichlorofluorescein diacetate, Sigma-Aldrich) in HBSS (containing 1% FBS) for 45 min at 37 °C in the dark. After the incubation period, cells were washed with 200 µL HBSS (1% FBS) and loaded with compounds at concentrations of 2 µM, 20 µM, 100 µM and 200 µM in 200 µL phenol-red-free MEM (1% FBS) in triplicates. As positive controls, cells were treated with 200 µM and 400 µM tert-butylhydroperoxide (Sigma-Aldrich). Wells containing only phenol-red-free medium with 1% FBS were used as blanks, and non-drug treated, cell containing wells as reference values. Fluorescence (excitation: 485/20 nm, emission: 516/20 nm) was recorded in 10 min intervals with the Synergy HT reader (BioTek) over 2 h.

[19] = system: HT29 cells; test: Annexin V-FITC/PI apoptosis assay, HT29; conditions: HT29, 24 h, 200 µM

N.N.[Cl][Pt][Cl] [Cisplatin]
IC50 [1]: 3.8 ± 1 µM | IC50 [2]: 14 ± 1 µM | IC50 [3]: 2.3 ± 0.2 µM | IC50 [4]: 0.073 ± 0.001 µM

Cc1occc(=O)c1[O-].F[P-](F)(F)(F)(F)F.[W+4].c1cc[cH-]c1.c1cc[cH-]c1 [Compound 1, Bis(η^5-cyclopentadienyl)[2-methyl-3-(oxo-κO)-4-(1H)-pyran-4-ato-κO]tungsten(IV) hexafluorophosphate]
Solubility in PBS (1% DMSO) [5]: 230 µg/mL | IC50 [6]: 85 ± 41 µM | E1/2 [7]: 1.037 V | activity in SW480 [8]: no activity was observed | IC50 [8]: > 200 µM | activity in A549 [9]: no activity was observed | IC50 [9]: > 200 µM

Cc1occc(=O)c1[O-].[Cl-].[W+4].c1cc[cH-]c1.c1cc[cH-]c1 [Compound 1A, Bis(η^5-cyclopentadienyl)[2-methyl-3-(oxo-κO)-4-(1H)-pyran-4-ato-κO]tungsten(IV) chloride]
early apoptotic cells [%] AV+ / PI- [10]: 5.6 ± 2.1% | late apoptotic cells [%] AV+ / PI+ [10]: 16.1 ± 4.6% | necrotic cells [%] AV- / PI+ [10]: 3.8 ± 2.1% | viable cells [%] AV- / PI- [10]: 74.5 ± 7.0% | ∑apoptotic cells [%] ([10]; sum of early and late): 21.7% | IC50 [11]: > 200 µM | IC50 [12]: > 200 µM | Solubility in PBS (1% DMSO) [5]: 5000 µg/mL | IC50 [6]: 147 ± 18 µM | IC50 [13]: > 200 µM | IC50 [14]: > 200 µM | IC50 [15]: > 200 µM | early apoptotic cells [%] AV+ / PI- [16]: 1.1 ± 0.6% | late apoptotic cells [%] AV+ / PI+ [16]: 3.2 ± 1.3% | necrotic cells [%] AV- / PI+ [16]: 2.3 ± 0.5% | viable cells [%] AV- / PI- [16]: 94.3 ± 2.3% | ∑apoptotic cells [%] ([16]; sum of early and late): 4.3% | IC50 [17]: > 200 µM | activity in SW480 [8]: no activity was observed | IC50 [8]: > 200 µM | activity in A549 [9]: no activity was observed | IC50 [9]: > 200 µM | intracellular ROS levels [18]: Pronounced elevation of ROS levels | early apoptotic cells [%] AV+ / PI- [19]: 3.5 ± 2.5% | late apoptotic cells [%] AV+ / PI+ [19]: 4.3 ± 0.9% | necrotic cells [%] AV- / PI+ [19]: 4.4 ± 4.8% | viable cells [%] AV- / PI- [19]: 87.8 ± 4.0% | ∑apoptotic cells [%] ([19]; sum of early and late): 7.8%

[Cl-].[Cl-].[Mo+4].c1cc[cH-]c1.c1cc[cH-]c1 [Cp2MoCl2, Molybdenocene dichloride]
IC50 [1]: > 200 µM | IC50 [3]: > 200 µM | IC50 [4]: > 200 µM
